# Reference: patent US20020147326A1, “Hexameric fusion proteins and uses therefor” (SmithKline Beecham Corporation, priority 1996, published 2002)
# Key:
# [1] = tested on: murine T-cell hybridoma cell lines expressing human CD28 (PCD28.1.s2.1, DCL27CD28wt.s2); test: IL-2 production by CD28 T-cell hybridomas (CTLL-2 bioassay); format: cell-based; conditions: for IL-2 response: cross-linked with GAH antibody, no CD3 antibody; for level of IL-2 response at near saturation: soluble protein 1 ug/ml (FIG. 20C)
# Excerpt: The CD80- and CD86-Igαtp proteins were compared to the corresponding CD80 and CD86-Ig proteins to determine their ability to stimulate cells expressing human CD28 using two murine T-cell hybridoma cell lines expressing human CD28, PCD28.1.s2.1 and DCL27CD28wt.s2. The PCD28.1.s2.1 cell line was described in Example 1, part 3. The DCL27CD28wt.s2 cell line was created by transfection of the DC27 cell line [F. Pages et al., Nature, 369:327-329 (1994); F. Pages et al., J. Biol. Chem., 271(16):9403-9409 (1996)] with the same CD28 expression vector used for the PCD28.1.s2.1 cells [D. Couez et al., Molecular Immunology, 31:47-57 (1994)]. These cell lines were examined for their ability to produce IL-2 in response to activation with CD80- and CD86-Ig in comparison with the corresponding Igαtp fusion proteins. 96-well plates were coated with or without a CD3 antibody together with the CD80 and CD86 fusion proteins. This was accomplished by first incubating the plates with a previously determined suboptimal concentration of hamster […] CD3 antibody (MAb 145-2C11, Boerhinger-Mannheim Biochemicals) for two hours at room temperature (RT) or with just buffer alone, washing the plates with PBS, adding goat anti-human Ig heavy chain (GAH-IgHc, Sigma Chemical Co.) for an additional two hours at RT, washing again and coating with different concentrations of the CD80 or CD86 fusion protein for 16-18 hours at 4° C., washing again, and finally blocking for 30 min. with 0.2% BSA-PBS. T cells (1×10^5/well) were added in 150 μl medium into duplicate wells. For comparison, the soluble fusion proteins and the 248.23.2 CD28 MAb (IgM) [A. Morretta, University of Genova, Italy] were added to non-coated wells. T cells were incubated in the wells for 24 hours at 37° C., and supernatants were collected and evaluated for IL-2 levels in a standard CTLL-2 bioassay [S. M. Gillis et al., J. Immunol., 120:2027 (1978)]. Briefly, 1×10^4 IL-2 dependent CTLL-2 cells (ATCC)/well in 75 μl medium were added to an equal volume of test supernatant and incubated for 24 hours at 37° C. The cells were pulsed with 10 μl of 5 mg/ml MTT (Sigma Chemical Co.) for 4 hours, and lysed with […] 10% SDS/0.01N HCl solution for 14-16 hours. OD570 readings were converted into ng/ml of IL-2 based on a standard curve generated by treating cells with known concentrations of IL-2.
# IL-2 promoter activity and IL-2 levels were measured similarly to that described in parts A and B above, except that proliferation of the reader CTLL-2 cells was measured by ^3H-thymidine incorporation.
# CD28-Ig = CD28-Ig (Homo sapiens, UniProt P10747); set-up: Ig fusion partner; conditions: read-out: approximate Kd of soluble CD80-Ig binding to immobilized CD28-Ig; Linsley et al. 1991; cited from earlier work
# CTLA4-Ig = target: T1, CTLA4-Ig (Homo sapiens, UniProt P16410, F162A); test: Isothermal titration calorimetry, binding to CTLA4-Ig in solution
# T1 construct: junction spanning the end of the CTLA4 extracellular domain and the hinge region; human IgG1 Fc (hinge/CH2/CH3); made in house; host or cells: CHO cells (by 'in a similar manner' to CD28-Ig)
# T1 sequence (P16410 38-162 F162A): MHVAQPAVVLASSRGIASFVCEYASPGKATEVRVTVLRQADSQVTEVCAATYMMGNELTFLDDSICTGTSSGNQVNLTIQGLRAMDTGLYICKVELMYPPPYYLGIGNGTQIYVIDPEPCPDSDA
# Excerpt: The solution binding properties of the hexameric and standard Ig fusion proteins of CD80 and CD86 were compared using isothermal titration calorimetry, essentially as described previously for other proteins [K. Johanson et. al., J. Biol. Chem, 270: 9459-9471 (1995), and references therein].
# The error in Kd's is about a factor of 2 and the error in molar binding ratio's is 10-20%. […] The molecular masses of CD80-Igαtp and CD86-Igαtp were estimated as 6× the mass of the respective Ig proteins plus 40,000 Da. contributed by the twelve tailpiece segments.
# [2] = added directly to PC28.1.s2.1 cells in solution, CTLL-2 3H-thymidine incorporation (FIG. 20B)
# [3] = soluble protein, absence of CD3 crosslinking
ratio of Igαtp to Ig titration equivalence points (molar ratio) (CTLA4-Ig),Substance,"IL-2 production [1, 2]",IL-2 response [1],"IL-2 production [1, 3]",Kd (CD28-Ig),level of IL-2 response at near saturation [1]
–,CD80-Ig: CD80 leader and extracellular domain grafted onto human IgG1 heavy chain Fc region; monomeric Ig fusion (Ig homodimer) [reference compound],no stimulation,did not give a response,no activity,~200 nM,–
about 6,CD80-Igαtp: CD80 leader and extracellular domain linked to human IgG1 hinge/CH2/CH3 and terminating in human IgA1 tailpiece (αtp),dose dependent stimulation,increased the IL-2 response,induced IL-2 production,–,comparable to that observed for stimulation through cross-linking of CD3 with immobilized CD3 antibody
–,CD86-Igαtp: CD86 leader and extracellular domain linked to human IgG1 Fc and terminating in human IgA1 tailpiece (αtp),dose dependent stimulation,increased the IL-2 response,induced IL-2 production,–,comparable to that observed for stimulation through cross-linking of CD3 with immobilized CD3 antibody
